From the supplement of paper PMC10307832 come the findings set out here.

Holding throughout (experiment): relative viability (nuclei count vs DMSO), 5 days (fraction); higher = more cells survive
Compound in the experiment “17-AAG + AZD7762”: C=CCNC1=C2C[C@@H](C)C[C@H](OC)[C@H](O)[C@@H](C)/C=C(\C)[C@H](OC(N)=O)[C@@H](OC)/C=C\C=C(/C)C(=O)NC(=CC1=O)C2=O [17-AAG] + NC(=O)Nc1cc(-c2cccc(F)c2)sc1C(=O)N[C@H]1CCCNC1 [AZD7762] (partner 0.2 µM)
A digest of the protocol:
(§1)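 Relative viability was taken as the ratio of nuclei in treated wells to nuclei in vehicle wells. Lung cancer cell lines in 1536-well plates received compounds by pin tool one day after seeding, either one drug alone or a fixed anchor-drug dose plus five library-drug doses (not always all listed) in √10 steps. Nuclei were counted on 4× images after 5 days of treatment, and values are medians of duplicate plates.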

Compound in the experiment “17-AAG + Palbociclib”: C=CCNC1=C2C[C@@H](C)C[C@H](OC)[C@H](O)[C@@H](C)/C=C(\C)[C@H](OC(N)=O)[C@@H](OC)/C=C\C=C(/C)C(=O)NC(=CC1=O)C2=O [17-AAG] + CC(=O)c1c(C)c2cnc(Nc3ccc(N4CCNCC4)cn3)nc2n(C2CCCC2)c1=O [Palbociclib] (partner 0.5 µM)
A digest of the protocol:
as §1

Compound in the experiment “17-AAG + Vorinostat”: C=CCNC1=C2C[C@@H](C)C[C@H](OC)[C@H](O)[C@@H](C)/C=C(\C)[C@H](OC(N)=O)[C@@H](OC)/C=C\C=C(/C)C(=O)NC(=CC1=O)C2=O [17-AAG] + O=C(CCCCCCC(=O)Nc1ccccc1)NO [Vorinostat] (partner 1 µM)
Summed up:
as §1

Compound in the experiment “17-AAG + Crizotinib”: C=CCNC1=C2C[C@@H](C)C[C@H](OC)[C@H](O)[C@@H](C)/C=C(\C)[C@H](OC(N)=O)[C@@H](OC)/C=C\C=C(/C)C(=O)NC(=CC1=O)C2=O [17-AAG] + C[C@@H](Oc1cc(-c2cnn(C3CCNCC3)c2)cnc1N)c1c(Cl)ccc(F)c1Cl [Crizotinib] (partner 1 µM)
Summed up:
as §1

Turning to NCI-H1944, the relative viability with 17-AAG + AZD7762 (first compound 0.00128 µM) came out at 0.497; with 17-AAG + AZD7762 (first compound 0.004048 µM) it was 0.488; with 17-AAG + AZD7762 (first compound 0.0128 µM) it was 0.237; with 17-AAG + AZD7762 (first compound 0.04048 µM), 0.155; in the experiment with 17-AAG + AZD7762 (first compound 0.128 µM), 0.138; in the experiment with 17-AAG + Palbociclib (first compound 0.00128 µM), 0.331. Besides, the relative viability in the experiment with 17-AAG + Palbociclib (first compound 0.004048 µM) came out at 0.341; with 17-AAG + Palbociclib (first compound 0.0128 µM), 0.3; in the experiment with 17-AAG + Palbociclib (first compound 0.04048 µM) it was 0.281; with 17-AAG + Palbociclib (first compound 0.128 µM), 0.151; in the experiment with 17-AAG + Vorinostat (first compound 0.00128 µM), 0.486; with 17-AAG + Vorinostat (first compound 0.004048 µM), 0.506. Also, the relative viability with 17-AAG + Vorinostat (first compound 0.0128 µM) was 0.397; in the experiment with 17-AAG + Vorinostat (first compound 0.04048 µM) it was 0.257; in the experiment with 17-AAG + Vorinostat (first compound 0.128 µM), 0.134; with 17-AAG + Crizotinib (first compound 0.00128 µM), 1.01; with 17-AAG + Crizotinib (first compound 0.004048 µM) it was 1.18; in the experiment with 17-AAG + Crizotinib (first compound 0.0128 µM) it was 1.02. In addition, the results for the relative viability in the experiment with 17-AAG + Crizotinib (first compound 0.04048 µM) and with 17-AAG + Crizotinib (first compound 0.128 µM) were 0.799 and 0.289, respectively.
For NCI-H1975, the relative viability in the experiment with 17-AAG + AZD7762 (first compound 0.00128 µM) was 0.753; with 17-AAG + AZD7762 (first compound 0.004048 µM), 0.656; with 17-AAG + AZD7762 (first compound 0.0128 µM) it was 0.331; with 17-AAG + AZD7762 (first compound 0.04048 µM) it was 0.203; with 17-AAG + AZD7762 (first compound 0.128 µM) it was 0.216; with 17-AAG + Palbociclib (first compound 0.00128 µM), 0.547. Also, the relative viability in the experiment with 17-AAG + Palbociclib (first compound 0.004048 µM) amounted to 0.526; with 17-AAG + Palbociclib (first compound 0.0128 µM), 0.22; with 17-AAG + Palbociclib (first compound 0.04048 µM) it was 0.106; with 17-AAG + Palbociclib (first compound 0.128 µM), 0.104; in the experiment with 17-AAG + Vorinostat (first compound 0.00128 µM) it was 0.716; with 17-AAG + Vorinostat (first compound 0.004048 µM), 0.597. Besides, the relative viability in the experiment with 17-AAG + Vorinostat (first compound 0.0128 µM) was 0.311; with 17-AAG + Vorinostat (first compound 0.04048 µM), 0.157; with 17-AAG + Vorinostat (first compound 0.128 µM), 0.152; in the experiment with 17-AAG + Crizotinib (first compound 0.00128 µM), 0.951; with 17-AAG + Crizotinib (first compound 0.004048 µM), 0.825; with 17-AAG + Crizotinib (first compound 0.0128 µM), 0.218. Also, the relative viability stood at 0.163 with 17-AAG + Crizotinib (first compound 0.04048 µM) and 0.126 with 17-AAG + Crizotinib (first compound 0.128 µM).
Consider NCI-H1993, for which the relative viability amounted to 0.936 with 17-AAG + AZD7762 (first compound 0.00128 µM); 0.644 with 17-AAG + AZD7762 (first compound 0.004048 µM); 0.325 with 17-AAG + AZD7762 (first compound 0.0128 µM); 0.339 with 17-AAG + AZD7762 (first compound 0.04048 µM); 0.248 in the experiment with 17-AAG + AZD7762 (first compound 0.128 µM); 0.704 with 17-AAG + Palbociclib (first compound 0.00128 µM). Also, the relative viability came to 0.622 in the experiment with 17-AAG + Palbociclib (first compound 0.004048 µM); 0.813 with 17-AAG + Palbociclib (first compound 0.0128 µM); 0.373 with 17-AAG + Palbociclib (first compound 0.04048 µM); 0.296 with 17-AAG + Palbociclib (first compound 0.128 µM); 0.83 with 17-AAG + Vorinostat (first compound 0.00128 µM); 0.73 in the experiment with 17-AAG + Vorinostat (first compound 0.004048 µM). For the same cell line, the relative viability was 0.472 with 17-AAG + Vorinostat (first compound 0.0128 µM); 0.201 with 17-AAG + Vorinostat (first compound 0.04048 µM); 0.273 in the experiment with 17-AAG + Vorinostat (first compound 0.128 µM); 0.932 in the experiment with 17-AAG + Crizotinib (first compound 0.00128 µM); 0.969 in the experiment with 17-AAG + Crizotinib (first compound 0.004048 µM); 0.899 in the experiment with 17-AAG + Crizotinib (first compound 0.0128 µM). Moreover, the values for the relative viability in the experiment with 17-AAG + Crizotinib (first compound 0.04048 µM) and with 17-AAG + Crizotinib (first compound 0.128 µM) were 0.537 and 0.403, respectively.
Take NCI-H2085: the relative viability with 17-AAG + AZD7762 (first compound 0.00128 µM) came to 0.983; in the experiment with 17-AAG + AZD7762 (first compound 0.004048 µM), 1.02; in the experiment with 17-AAG + AZD7762 (first compound 0.0128 µM), 1; with 17-AAG + AZD7762 (first compound 0.04048 µM), 1; with 17-AAG + AZD7762 (first compound 0.128 µM), 0.551; in the experiment with 17-AAG + Palbociclib (first compound 0.00128 µM) it was 0.51. The relative viability in the experiment with 17-AAG + Palbociclib (first compound 0.004048 µM) came to 0.472; in the experiment with 17-AAG + Palbociclib (first compound 0.0128 µM), 0.479; in the experiment with 17-AAG + Palbociclib (first compound 0.04048 µM) it was 0.443; in the experiment with 17-AAG + Palbociclib (first compound 0.128 µM), 0.337; in the experiment with 17-AAG + Vorinostat (first compound 0.00128 µM), 0.787; with 17-AAG + Vorinostat (first compound 0.004048 µM), 0.809. For the same cell line, the relative viability in the experiment with 17-AAG + Vorinostat (first compound 0.0128 µM) is 0.861; in the experiment with 17-AAG + Vorinostat (first compound 0.04048 µM) it was 0.665; with 17-AAG + Vorinostat (first compound 0.128 µM) it was 0.599; with 17-AAG + Crizotinib (first compound 0.00128 µM), 0.913; with 17-AAG + Crizotinib (first compound 0.004048 µM) it was 0.71; with 17-AAG + Crizotinib (first compound 0.0128 µM), 0.971. The relative viability came to 0.924 with 17-AAG + Crizotinib (first compound 0.04048 µM) and 0.637 in the experiment with 17-AAG + Crizotinib (first compound 0.128 µM).
